Experimental data taken from ChEMBL document CHEMBL4402597, “Truncated (N)-Methanocarba Nucleosides as Partial Agonists at Mouse and Human A3 Adenosine Receptors: Affinity Enhancement by N6-(2-Phenylethyl) Substitution” (J Med Chem, 2020).

Experiments:
[1] = molecular target: T1, Adenosine receptor A3 (Mus musculus, UniProt Q61618); experiment: biochemical
T1 sequence (Q61618 whole entry): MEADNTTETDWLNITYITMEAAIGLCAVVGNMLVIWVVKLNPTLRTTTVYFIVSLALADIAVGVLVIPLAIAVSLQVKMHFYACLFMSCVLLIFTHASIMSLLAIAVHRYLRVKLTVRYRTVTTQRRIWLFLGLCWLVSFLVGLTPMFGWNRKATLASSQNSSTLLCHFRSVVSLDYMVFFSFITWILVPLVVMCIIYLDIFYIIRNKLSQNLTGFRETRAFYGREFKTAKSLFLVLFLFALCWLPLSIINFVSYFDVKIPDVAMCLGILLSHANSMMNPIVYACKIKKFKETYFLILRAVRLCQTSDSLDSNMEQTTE

[2] = molecular target: T2, Adenosine receptor A1 (Homo sapiens) (UniProt P30542); experiment: Displacement of [3H]R-PIA from recombinant human A1AR expressed in HEK293 cell membranes at 10 uM measured after 60 mins by liquid scintillation counting method relative to control
T2 sequence (whole entry): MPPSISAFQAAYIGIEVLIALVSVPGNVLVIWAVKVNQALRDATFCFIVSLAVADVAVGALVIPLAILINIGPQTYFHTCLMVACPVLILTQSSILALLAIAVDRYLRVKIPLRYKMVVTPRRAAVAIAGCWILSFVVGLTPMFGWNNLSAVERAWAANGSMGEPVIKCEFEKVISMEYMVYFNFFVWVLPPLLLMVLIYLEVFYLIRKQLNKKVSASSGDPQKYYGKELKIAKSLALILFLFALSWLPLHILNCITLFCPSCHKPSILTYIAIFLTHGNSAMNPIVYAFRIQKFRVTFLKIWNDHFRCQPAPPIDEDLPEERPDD

[3] = molecular target: T3, Adenosine receptor A3 (Homo sapiens, UniProt P0DMS8); experiment: biochemical
T3 sequence (P0DMS8 whole entry): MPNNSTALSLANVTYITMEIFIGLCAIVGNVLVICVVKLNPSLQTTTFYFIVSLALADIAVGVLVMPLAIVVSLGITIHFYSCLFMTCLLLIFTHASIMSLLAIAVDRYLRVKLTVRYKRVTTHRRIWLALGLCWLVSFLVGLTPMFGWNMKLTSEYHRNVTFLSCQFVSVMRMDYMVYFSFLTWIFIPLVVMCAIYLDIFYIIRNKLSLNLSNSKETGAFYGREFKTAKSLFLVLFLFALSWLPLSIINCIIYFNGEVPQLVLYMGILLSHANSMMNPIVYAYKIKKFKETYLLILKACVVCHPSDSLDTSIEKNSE

[4] = molecular target: Translocator protein (Homo sapiens, UniProt P30536); experiment: Inhibition of TSPO (unknown origin)
Chain of Translocator protein (P30536 whole entry): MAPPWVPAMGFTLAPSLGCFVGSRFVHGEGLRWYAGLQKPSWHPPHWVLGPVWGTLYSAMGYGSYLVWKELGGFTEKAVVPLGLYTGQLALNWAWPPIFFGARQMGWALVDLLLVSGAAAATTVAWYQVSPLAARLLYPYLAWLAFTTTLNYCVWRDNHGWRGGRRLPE

[5] = molecular target: Adenosine receptor A2a (Homo sapiens, UniProt P29274); experiment: Displacement of [3H]CGS21680 from recombinant human A2AAR expressed in HEK293 cell membranes at 10 uM measured after 60 mins by liquid scintillation counting method relative to control
Chain of Adenosine receptor A2a (P29274 whole entry): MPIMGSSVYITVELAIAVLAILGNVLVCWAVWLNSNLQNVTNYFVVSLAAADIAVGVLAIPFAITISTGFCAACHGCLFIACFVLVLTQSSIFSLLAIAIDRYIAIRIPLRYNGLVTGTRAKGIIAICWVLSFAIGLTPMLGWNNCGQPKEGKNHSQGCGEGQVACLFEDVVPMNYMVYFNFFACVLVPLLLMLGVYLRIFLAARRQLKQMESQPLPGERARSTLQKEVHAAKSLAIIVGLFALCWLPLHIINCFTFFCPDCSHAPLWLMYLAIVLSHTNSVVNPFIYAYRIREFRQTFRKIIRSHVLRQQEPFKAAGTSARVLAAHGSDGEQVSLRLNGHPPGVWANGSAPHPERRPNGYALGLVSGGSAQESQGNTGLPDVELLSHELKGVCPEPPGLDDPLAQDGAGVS

[6] = molecular target: T4, Adenosine receptor A1 (Homo sapiens, UniProt P30542); experiment: Displacement of [3H]R-PIA from recombinant human A1AR expressed in HEK293 cell membranes measured after 60 mins by liquid scintillation counting method
T4 sequence (P30542 whole entry): T2 sequence (whole entry)

[7] = molecular target: T5, Adenosine receptor A3 (Homo sapiens) (UniProt P0DMS8); experiment: Partial agonist activity at recombinant human A3AR expressed in HEK293 cells assessed as inhibition of forskolin-stimulated cAMP accumulation by measuring residual cAMP level measured after 30 mins in presence of A2BAR blocker PSB-603 by Glo-sensor assay relative to control; assay type: functional, cell-based
T5 sequence (whole entry): T3 sequence (P0DMS8 whole entry)

[8] = molecular target: T3, Adenosine receptor A3; experiment: Partial agonist activity at recombinant human A3AR expressed in HEK293 cells assessed as inhibition of forskolin-stimulated cAMP accumulation measured after 30 mins in presence of A2BAR blocker PSB-603 by Glo-sensor assay; assay type: functional, cell-based
[9] = molecular target: T5, Adenosine receptor A3 (Homo sapiens); experiment: Partial agonist activity at recombinant human A3AR expressed in HEK293 cells assessed as inhibition of forskolin-stimulated cAMP accumulation at 10 uM measured after 30 mins in presence of A2BAR blocker PSB-603 by Glo-sensor assay relative to Cl-IB-MECA; assay type: functional, cell-based
[10] = molecular target: T6, Adenosine receptor A3 (Mus musculus) (UniProt Q61618); experiment: Partial agonist activity at recombinant mouse A3AR expressed in HEK293 cell membranes assessed as stimulation of [35S]GTPgammaS binding measured after 2 hrs in presence of A2BAR blocker PSB-603 by liquid scintillation counting analysis relative to adenosine-5'-Nethyluronamide; assay type: functional
T6 sequence (whole entry): T1 sequence (Q61618 whole entry)

[11] = molecular target: T7, Adenosine receptor A1 (Mus musculus, UniProt Q60612); experiment: Displacement of [3H]R-PIA from recombinant mouse A1AR expressed in HEK293 cell membranes measured after 60 mins by liquid scintillation counting method
T7 sequence (Q60612 whole entry): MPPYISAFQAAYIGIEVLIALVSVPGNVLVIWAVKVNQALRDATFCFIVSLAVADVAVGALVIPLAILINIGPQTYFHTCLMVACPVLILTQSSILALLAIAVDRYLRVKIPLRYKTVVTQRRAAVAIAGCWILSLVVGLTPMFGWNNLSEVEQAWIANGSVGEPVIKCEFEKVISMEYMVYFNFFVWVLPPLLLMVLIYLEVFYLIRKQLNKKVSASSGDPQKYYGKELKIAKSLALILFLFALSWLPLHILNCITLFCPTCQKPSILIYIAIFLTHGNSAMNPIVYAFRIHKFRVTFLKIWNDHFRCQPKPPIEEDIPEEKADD

| Structure (SMILES) | Ki [1] [µM] | inhibition [2] [%] | Ki [3] [µM] | Ki [4] [µM] | inhibition [5] [%] | Ki [6] [µM] | Emax [7] [%] | EC50 [8] [µM] | Emax [9] [%] | Emax [10] [%] | Ki [11] [µM] |
| --- | --- | --- | --- | --- | --- | --- | --- | --- | --- | --- | --- |
| O[C@@H]1[C@H](O)[C@@H]2C[C@@H]2[C@H]1n1cnc2c(NCCc3cccc(F)c3)nc(C#Cc3ccc(Cl)s3)nc21 | 0.488 | 31 | 0.0422 | 0.2 | 55 |  |  |  |  |  |  |
| O[C@@H]1[C@H](O)[C@@H]2C[C@@H]2[C@H]1n1cnc2c(NCCc3ccccc3)nc(C#Cc3ccccc3Cl)nc21 | 0.98 |  |  |  |  |  |  |  |  |  |  |
| COc1ccc(CCNc2nc(C#Cc3ccccc3)nc3c2ncn3[C@H]2[C@H](O)[C@H](O)[C@@H]3C[C@@H]32)cc1O | 0.122 | 49 | 0.00685 |  | 27 |  |  |  |  |  |  |
| COc1cc(CCNc2nc(C#Cc3ccc(F)cc3)nc3c2ncn3[C@H]2[C@H](O)[C@H](O)[C@@H]3C[C@@H]32)ccc1O | 0.0544 | 39 | 0.00651 |  | 51 |  |  |  |  |  |  |
| COc1cc(CCNc2nc(C#Cc3ccc(F)c(F)c3)nc3c2ncn3[C@H]2[C@H](O)[C@H](O)[C@@H]3C[C@@H]32)ccc1O | 0.075 |  | 0.0128 |  | 33 | 0.341 |  |  |  |  |  |
| O[C@@H]1[C@H](O)[C@@H]2C[C@@H]2[C@H]1n1cnc2c(N[C@H]3C[C@@H]3c3ccccc3)nc(C#Cc3ccc(Cl)s3)nc21 | 1.14 | 32 | 0.0805 |  | 44 |  |  |  |  |  |  |
| COc1cc(CCNc2nc(C#Cc3ccc(Cl)s3)nc3c2ncn3[C@H]2[C@H](O)[C@H](O)[C@@H]3C[C@@H]32)ccc1O | 0.0747 |  | 0.00952 |  | 38 | 0.649 |  |  |  |  |  |
| O[C@@H]1[C@H](O)[C@@H]2C[C@@H]2[C@H]1n1cnc2c(NCCc3ccccc3)nc(C#Cc3ccc(Cl)s3)nc21 | 0.995 | 10 | 0.00817 |  | 46 |  | 37.6 | 2.41 | 80 |  |  |
| COc1cc(CCNc2nc(C#Cc3cccc(F)c3)nc3c2ncn3[C@H]2[C@H](O)[C@H](O)[C@@H]3C[C@@H]32)ccc1O | 0.0722 | 38 | 0.00463 |  | 51 |  |  |  |  |  |  |
| COc1cc(CCNc2nc(I)nc3c2ncn3[C@H]2[C@H](O)[C@H](O)[C@@H]3C[C@@H]32)ccc1O | 0.0925 | 50 | 0.0091 |  | 49 |  |  |  |  |  |  |
| CCNC(=O)[C@H]1O[C@@H](n2cnc3c(N)ncnc32)[C@H](O)[C@@H]1O |  |  |  |  |  |  |  |  |  | 100 |  |
| O[C@@H]1[C@H](O)[C@@H]2C[C@@H]2[C@H]1n1cnc2c(NCCc3ccc(F)c(F)c3)nc(C#Cc3ccc(Cl)s3)nc21 | 2.52 | 28 | 0.0471 |  | 57 |  |  |  |  |  |  |
| Oc1ccc(CCNc2nc(C#Cc3ccccc3)nc3c2ncn3[C@H]2[C@H](O)[C@H](O)[C@@H]3C[C@@H]32)cc1 | 0.0764 | 29 | 0.0456 |  | 32 |  |  |  |  |  |  |
| O[C@@H]1[C@H](O)[C@@H]2C[C@@H]2[C@H]1n1cnc2c(NCCc3cccc(Cl)c3)nc(C#Cc3ccc(Cl)s3)nc21 | 0.531 | 39 | 0.0584 |  | 59 |  |  |  |  |  |  |
| O[C@@H]1[C@H](O)[C@@H]2C[C@@H]2[C@H]1n1cnc2c(NCCc3cccc(F)c3)nc(C#Cc3ccc(F)s3)nc21 | 0.404 |  | 0.0558 |  | 48 | 2.29 |  |  |  |  |  |
| COc1cc(CCNc2nc(C#Cc3ccc(Br)s3)nc3c2ncn3[C@H]2[C@H](O)[C@H](O)[C@@H]3C[C@@H]32)ccc1O | 0.026 | 15 | 0.00324 |  | 38 |  | 61 | 0.692 | 50 |  | 2.84 |
| Nc1ccc(CCNc2nc(C#Cc3ccccc3)nc3c2ncn3[C@H]2[C@H](O)[C@H](O)[C@@H]3C[C@@H]32)cc1 | 0.0604 | 30 | 0.0142 |  | 26 |  |  |  |  |  |  |
| Oc1ccc(CCNc2nc(C#Cc3ccccc3)nc3c2ncn3[C@H]2[C@H](O)[C@H](O)[C@@H]3C[C@@H]32)cc1F | 0.0616 | 44 | 0.00903 |  | 17 |  |  |  |  |  |  |
| Oc1ccc(CCNc2nc(C#Cc3ccccc3)nc3c2ncn3[C@H]2[C@H](O)[C@H](O)[C@@H]3C[C@@H]32)cc1O | 0.0398 | 28 | 0.0488 |  | 27 |  |  |  |  |  | 1.42 |
| COc1cc(CCNc2nc(C#Cc3cccnc3)nc3c2ncn3[C@H]2[C@H](O)[C@H](O)[C@@H]3C[C@@H]32)ccc1O | 0.155 | 36 | 0.0067 |  | 39 |  |  |  |  |  |  |
| COc1ccc(CCNc2nc(C#Cc3ccccc3)nc3c2ncn3[C@H]2[C@H](O)[C@H](O)[C@@H]3C[C@@H]32)cc1OC | 0.331 |  | 0.0163 |  | 28 | 0.208 |  |  |  |  |  |
| O[C@@H]1[C@H](O)[C@@H]2C[C@@H]2[C@H]1n1cnc2c(NCCc3cccc(F)c3)nc(C#Cc3ccccc3)nc21 | 0.264 |  | 0.0359 |  | 27 | 2.68 |  |  |  |  |  |
| Cc1cccc(CCNc2nc(C#Cc3ccc(Cl)s3)nc3c2ncn3[C@H]2[C@H](O)[C@H](O)[C@@H]3C[C@@H]32)c1 | 0.675 | 29 | 0.106 |  | 50 |  |  |  |  |  |  |
